Laboratory results reported in patent publication US20190038611A1, “Novel CYP34A-Specific Inhibitors and Methods of Using Same” (THE REGENTS OF THE UNIVERSITY OF CALIFORNIA, priority 2015, published 2019).
Values joined by “and” are separate entries in the source; they are usually repeats but may differ in a detail not shown here. Equal values may be shown once. Read-outs that look alike come from different tables or passages of the source.

Key:
CYP3A4 [1] = target: T1, CYP3A4 (Homo sapiens, UniProt P08684); assay: Kinetics of ligand binding to CYP3A4 (stopped flow); conditions: for kfast (rate constant for the fast phase of the binding reaction): saturating ligand concentrations, room temperature, 2 μM CYP3A4
T1 sequence (P08684 with tags, fused parts or gaps): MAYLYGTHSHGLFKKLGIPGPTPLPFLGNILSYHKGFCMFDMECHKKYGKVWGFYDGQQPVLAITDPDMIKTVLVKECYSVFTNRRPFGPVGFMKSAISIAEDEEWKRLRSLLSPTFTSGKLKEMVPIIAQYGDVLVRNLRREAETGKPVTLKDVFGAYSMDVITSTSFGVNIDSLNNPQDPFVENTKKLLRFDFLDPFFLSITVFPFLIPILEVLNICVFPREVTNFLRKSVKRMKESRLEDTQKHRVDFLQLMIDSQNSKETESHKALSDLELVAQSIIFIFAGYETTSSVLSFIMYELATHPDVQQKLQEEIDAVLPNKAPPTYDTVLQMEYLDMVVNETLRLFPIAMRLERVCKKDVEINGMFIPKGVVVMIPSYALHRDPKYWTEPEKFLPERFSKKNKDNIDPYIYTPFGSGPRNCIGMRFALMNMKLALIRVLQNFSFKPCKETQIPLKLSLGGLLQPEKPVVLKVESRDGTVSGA
Protocol: Kinetics of ligand binding to CYP3A4 was monitored at room temperature in 50 mM phosphate, pH 7.4, in a SX.18MV stopped flow apparatus (Applied Photophysics,
UK) after mixing 2 μM CYP3A4 with various concentrations of ligands. […] Kinetic data were analyzed using the program IgorPro (WaveMetrics, Inc).

CYP3A4 [2] = target: T1, CYP3A4
Protocol: (§1) Thermal denaturation experiments were conducted as previously described (Sevrioukova and Poulos, 2013 J. Med. Chem. 56: 3733-41) to compare ligand-dependent changes in CYP3A4 stability. The inhibitory potency of the investigated compounds on the 7-benzyloxy-4-(trifluoromethyl)coumarin (BFC) O-debenzylation activity of CYP3A4 was evaluated fluorometrically in a reconstituted system with rat cytochrome P450 reductase (CPR). The reaction was carried out at room temperature in 100 mM phosphate buffer, pH 7.4, containing catalase and superoxide dismutase (2 Units/ml each). A mixture of 1 μM CYP3A4 and 1 μM CPR was preincubated for 1 hour at room temperature and diluted by 20-fold with the assay buffer immediately before measurements. BFC (50 μM) and various concentrations of analogs were added to the protein mixture 2 minutes prior to the reaction initiation with 100 μM NADPH. Formation of 7-hydroxy-4-trifluoromethylcoumarin was followed in a Hitachi F100 fluorometer using λex=430 nm and λem=500 nm. IC50 values were derived from the [% activity] vs. [inhibitor] plots.

CYP3A4 [3] = target: T1, CYP3A4; remark: listed apart in the source
CYP3A4 [4] = target: T1, CYP3A4; assay: Spectral binding titrations (equilibrium titration of CYP3A4, spectral dissociation constant); parameters: 4-histidine tag (C); made in house; host or cells: E. coli
Protocol: Left insets depict difference spectra between the ligand-free and inhibitor-bound forms. Right insets are plots of the absorbance change versus inhibitor concentration, based on which the Kd values were calculated.

CYP3A4 [5] = target: T1, CYP3A4; assay: Thermal denaturation (ligand-dependent changes in CYP3A4 melting temperature); type: binding; parameters: 4-histidine tag (C); made in house; host or cells: E. coli
Protocol: as §1

CYP3A4 [6] = target: T1, CYP3A4; assay: Inhibition of BFC O-debenzylation activity of CYP3A4 in a reconstituted system with rat cytochrome P450 reductase
Protocol: as §1

CYP3A4 [7] = target: T1, CYP3A4; assay: 442 nm peak in the absorbance spectrum of ligand-bound ferrous CYP3A4
[8] = read-out: IC50 (concentration required for half-maximal inactivation of recombinant CYP3A4), BFC 50 μM, 100 μM NADPH, room temperature, pH 7.4
[9] = 50 mM phosphate pH 7.4, 20% glycerol, 1 mM dithiothreitol, single site, read-out: Ks (spectral dissociation constant)

SMILES	ΔTm (ligand-dependent changes in the melting temperature of CYP3A4) (CYP3A4 [5]) [°C]	IC50 (CYP3A4 [6]; [8])	kfast (rate constant for the fast phase of the binding reaction) (CYP3A4 [1])	Kd (CYP3A4 [4]; [9]) [µM]	442 nm absorption of the ferrous ligand-bound form of CYP3A4 (CYP3A4 [7])	also measured
NCCCCCC(=O)NCc1cccnc1 [Compound 5]	−0.2	1000 ± 150 µM				rate constants of monophasic binding reaction (CYP3A4 [1]): 0.5 to 0.8 s⁻¹; IC50 (CYP3A4 [2]): 1000 to 4000 µM; 442 nm absorption of the ferrous ligand-bound form of CYP3A4 (CYP3A4 [3]): undetectable; Kd (CYP3A4 [4]; two binding sites, read-out: KS, second of two binding sites): 4400 µM; Kd (CYP3A4 [4]; values derived from the two site saturation fit to a titration curve, two binding sites, read-out: Ks (spectral dissociation constant), two site saturation fit): 10 µM
CC(C)(C)OC(=O)N[C@H](CSCCC(=O)NCc1cccnc1)Cc1ccccc1 [Compound 15a]	−1 ± 0.2	0.5 µM and 0.52 µM	1.7 s⁻¹ and 1.7 ± 0.2 s⁻¹	0.9 ± 0.1	pronounced	
CC(C)(C)OC(=O)N[C@H](CSCCC(=O)NCc1cccnc1)CC1CCCCC1 [Compound 11]	−2 ± 0.4	30 µM	4.0 ± 0.2 s⁻¹	10 ± 1	considerably smaller	
NCCc1ccccn1 [aminoethylpyridine, reference compound]	−0.1	5000 ± 600 µM	0.6 ± 0.1 s⁻¹	2500 ± 200	undetectable	
c1ccncc1 [pyridine, reference compound]	0		0.5 ± 0.1 s⁻¹	4500 ± 400	undetectable	IC50 (CYP3A4 [6]; IC50 (concentration required for half-maximal inactivation of recombinant CYP3A4), BFC 50 μM, 100 μM NADPH, room temperature, pH 7.4): 4000 ± 500 µM; IC50 (CYP3A4 [6]; IC50 on the BFC debenzylation activity of CYP3A4, one range given for pyridine, aminoethylpyridine and 5 together): 1000 to 4000 µM
CC(C)(C)OC(=O)N[C@H](CN[C@@H](Cc1ccccc1)C(=O)NCCc1cccnc1)Cc1ccccc1 [Compound 01ERS089, N-BOC-Trp-S-N-Ph-Cys-CONH-Et-Pyr]						Kd (CYP3A4 [4]; calculated from plots of absorbance change versus inhibitor concentration (FIG. 37), read-out: Kd (binding affinity to CYP3A4)): 0.13 µM; IC50 (CYP3A4 [6]): 0.39 µM
CC(C)(C)OC(=O)N[C@H](CSCCC(=O)NCc1cccnc1)Cc1c[nH]c2ccccc12 [Compound 15b]	0.2	0.2 µM and 0.21 µM	8.0 ± 1.5 s⁻¹	0.5 ± 0.1	pronounced	change of CYP3A4 Tm / thermal stability upon complex formation (CYP3A4 [5]): slightly increased
CC(C)(C)OC(=O)NCCCCCC(=O)NCc1cccnc1 [Compound 4]	−0.2	75 µM	20 s⁻¹ and 20 ± 2 s⁻¹	105 ± 10	considerably smaller	
